The results in this text go back to patent US12037354B2, “Cyclic pantetheine derivatives and uses thereof” (VectivBio Comet AG, priority 2018, dated 2024).

In the test the test system is HepG2 cells. Kind of test: Glucose uptake Glo Assay, Example 821. Type of test: cell-based. As to conditions: for activation at 10 µM / activation at 50 µM: Homo sapiens, 20 min, read-out: % increase in Glucose Uptake. How it is done:
The effect of compounds from the present disclosure on glucose uptake was determined in HepG2 cells (ATCC, HB-8065) using the glucose uptake Glo Assay Kit (Promega, 11343 according to manufacturer instructions. HepG2 cells were cultured in complete DMEM-glucose media (Gibco) supplemented with 10% FBS (37° C. incubator with 5% CO2) and seeded in 96-well plates at 30,000 cells/well. After removing the complete media, 100 μL/well of serum-free, high-glucose DMEM media were added to the wells and incubated overnight (37° C. incubator with 5% CO2). Media was then replaced with 100 μl/well DPBS containing 0.6°/o BSA and starved for 1 hour. Next, DPBS was removed and 45 μl/well of insulin (100 nM) or compounds (10 μM-50 μM) were added to the wells and incubated for 10 minutes (37° C. incubator with 5% CO2). Insulin and compounds were prepared in DPBS with 0.6% BSA with a final DMSO concentration of 0.1%. Next, 5 μl of 2DG (10 mM) in DPBS were added per well and allowed to incubate for 20 minutes followed by addition of 25 μl stop buffer. 37.5 μl of the mixture were then transferred to a new plate and 12.5 μl of Neutralization buffer added to the wells. After, 50 μl of 2DG6P detection Reagent were added and incubated for 0.5-1 hour at room temperature. Luminescence was measured with 0.3-1 second integration on a luminometer.

Read-outs that look alike come from different tables or passages of the source. A value given as a limit tells only on which side of the number the result lay.

Turning to `CC1(C)COP(=O)(O)O[C@H]1C(=O)NCCC(=O)NCCSC(=O)CCC(=O)O` [Compound 1], the activation at 10 µM (10 uM (Example 968)) is no less than 30%.
As to `CC(=O)SCCNC(=O)CCNC(=O)[C@@H]1OP(=O)(O)OCC1(C)C` [Compound 2], the activation at 10 µM (10 uM (Example 970)) was no less than 10%.
In the case of `CC1(C)COP(=O)(O)O[C@H]1C(=O)NCCC(=O)NCCSC(=O)CC(=O)CCC(=O)O` [Compound 3], the activation at 10 µM (10 uM) was no less than 10%. Also, the “% increase in Glucose Uptake” value (concentration tested 10 uM) is reported as no less than 10%.
For the compound `CC1(C)COP(=O)(O)O[C@H]1C(=O)NCCC(=O)NCCSC(=O)/C=C/C(=O)O` [Compound 20], the activation at 50 µM (50 uM) was no less than 30%. Further, where the note is “concentration tested 50 uM”, the “% increase in Glucose Uptake” value is listed as no less than 30%.
For `C[C@@H](O)CC(=O)SCCNC(=O)CCNC(=O)[C@@H]1OP(=O)(O)OCC1(C)C` [Compound 39], in that order: no less than 10% and no less than 10%.
Turning to `CC(CC(=O)SCCNC(=O)CCNC(=O)[C@@H]1OP(=O)(O)OCC1(C)C)O[C@H](CC(=O)[O-])C[N+](C)(C)C` (stereo partly drawn) [Compound 47], where the note is “50 uM (Example 966)”, the activation at 50 µM is no less than 10%.
As for `COC(=O)CC(SCCNC(=O)CCNC(=O)[C@@H]1OP(=O)(O)OCC1(C)C)C(=O)OCC[N+](C)(C)C` (stereo partly drawn) [Compound 57], the activation at 50 µM (50 uM (Example 971)) is no less than 20%.
Turning to `COC(=O)[C@H](C)NP1(=O)OCC(C)(C)[C@H](C(=O)NCCC(=O)NCCSC(=O)CCC(=O)O)O1` (stereo partly drawn) [Compound 63], for the setting “50 uM (Example 967)”, the activation at 50 µM was no less than 30%.
With `COP1(=O)OCC(C)(C)[C@H](C(=O)NCCC(=O)NCCSC(=O)CC(=O)/C=C/C(=O)O)O1` (stereo partly drawn) [Compound 117], the activation at 10 µM (10 uM (Example 970)) is no less than 30%.
For `C/C=C/C(=O)SCCNC(=O)CCNC(=O)[C@@H]1OP(=O)(OC)OCC1(C)C` (stereo partly drawn) [Compound 141], the activation at 50 µM (50 uM (Example 969)) was no less than 30%.
Still for that read-out and setting: with `C/C=C/C(=O)SCCNC(=O)CCNC(=O)[C@@H]1OP(=O)(N[C@@H](C)C(=O)OC)OCC1(C)C` (stereo partly drawn) [Compound 144] the figure was no less than 30%.
For the compound `C/C=C/C(=O)SCCNC(=O)CCNC(=O)[C@@H]1OP(=O)(N[C@@H](C)C(=O)O)OCC1(C)C` (stereo partly drawn) [Compound 145], where the note is “10 uM (Example 970)”, the activation at 10 µM is no less than 30%.
On to `COC(=O)[C@H](C)NP1(=O)OCC(C)(C)[C@H](C(=O)NCCC(=O)NCCSC(=O)CC(C)=O)O1` (stereo partly drawn) [Compound 157], for which, where the note is “50 uM (Example 971)”, the activation at 50 µM was no less than 20%.
As for `CCOP1(=O)OCC(C)(C)[C@H](C(=O)NCCC(=O)NCCSC(=O)CC(=O)CC(=O)CCC(=O)O)O1` (stereo partly drawn) [Compound 183], the activation at 10 µM (10 uM (Example 970)) is no less than 30%.
On to `COC(=O)[C@H](C)NP1(=O)OCC(C)(C)[C@H](C(=O)NCCC(=O)NCCSC(=O)CC(=O)CC(=O)CCC(=O)O)O1` (stereo partly drawn) [Compound 185], for which, under “50 uM (Example 970)”, the activation at 50 µM is no less than 30%.
Regarding `CCOC(=O)CCC(=O)CC(=O)CC(=O)SCCNC(=O)CCNC(=O)[C@@H]1OP(=O)(OC)OCC1(C)C` (stereo partly drawn) [Compound 211], the activation at 50 µM (50 uM (Example 969)) is no less than 30%.
`CCOC(=O)CCC(=O)CC(=O)CC(=O)SCCNC(=O)CCNC(=O)[C@@H]1OP(=O)(N[C@@H](C)C(=O)OC)OCC1(C)C` (stereo partly drawn) [Compound 213]: the activation at 50 µM (50 uM (Example 970)) was no less than 30%.
`CCOC(=O)CCC(=O)CC(=O)CC(=O)SCCNC(=O)CCNC(=O)[C@@H]1OP(=O)(OCC[N+](C)(C)C)OCC1(C)C` (stereo partly drawn) [Compound 214]: the activation at 10 µM (10 uM (Example 972)) is no less than 20%.
`COC(=O)CC(SCCNC(=O)CCNC(=O)[C@@H]1OP(=O)(N[C@@H](C)C(=O)OC)OCC1(C)C)C(=O)OC` (stereo partly drawn) [Compound 370]: the activation at 50 µM (50 uM (Example 969)) is no less than 30%.
For `COC(=O)CC(SCCNC(=O)CCNC(=O)[C@@H]1OP(=O)(OCC[N+](C)(C)C)OCC1(C)C)C(=O)OC` (stereo partly drawn) [Compound 371], the activation at 10 µM (10 uM (Example 969)) is no less than 30%.
For the compound `COC(=O)C(CC(=O)O)SCCNC(=O)CCNC(=O)[C@@H]1OP(=O)(OC)OCC1(C)C` (stereo partly drawn) [Compound 382], for the setting “50 uM (Example 970)”, the activation at 50 µM is no less than 30%.
Consider `COC(=O)C(CC(=O)OCC[N+](C)(C)C)SCCNC(=O)CCNC(=O)[C@@H]1OP(=O)(Oc2ccccc2)OCC1(C)C` (stereo partly drawn) [Compound 393], for which the activation at 10 µM (10 uM (Example 970)) is no less than 30%.
For the compound `COP1(=O)OCC(C)(C)[C@H](C(=O)NCCC(=O)NCCSC(CC(=O)OCC[N+](C)(C)C)C(=O)O)O1` (stereo partly drawn) [Compound 397], under “10 uM (Example 969)”, the activation at 10 µM was no less than 20%.
For `CCOC(=O)CC(SCCNC(=O)CCNC(=O)[C@@H]1OP(=O)(OC)OCC1(C)C)C(=O)OCC[N+](C)(C)C` (stereo partly drawn) [Compound 410], the activation at 50 µM (50 uM (Example 969)) was no less than 30%.
On the same count and under the same terms, with `CC1(C)COC(=O)O[C@H]1C(=O)NCCC(=O)NCCSC(=O)CC(=O)CCC(=O)OCC[N+](C)(C)C` [Compound 460] the figure was no less than 30%.
Regarding `C[C@@H](O)CC(=O)SCCNC(=O)CCNC(=O)[C@@H]1OC(=O)OCC1(C)C` [Compound 485], the activation at 50 µM (50 uM) was no less than 10%. Besides, where the note is “concentration tested 50 uM”, the “% increase in Glucose Uptake” value is no less than 10%.
In the case of `COC(=O)C(CC(=O)O)SCCNC(=O)CCNC(=O)[C@@H]1OC(=O)OCC1(C)C` (stereo partly drawn) [Compound 498], the activation at 50 µM (50 uM (Example 971)) was no less than 10%.
Regarding `COC(=O)CC(SCCNC(=O)CCNC(=O)[C@@H]1OC(=O)OCC1(C)C)C(=O)OCC[N+](C)(C)C` (stereo partly drawn) [Compound 503], for the setting “50 uM (Example 972)”, the activation at 50 µM is no less than 20%.
On to `COC(=O)CC1(C)OCC(C)(C)[C@H](C(=O)NCCC(=O)NCCSC(=O)CCC(=O)O)O1` (stereo partly drawn) [Compound 609], for which the activation at 10 µM (10 uM) is no less than 10%. Further, the “% increase in Glucose Uptake” value (concentration tested 10 uM) is given as no less than 10%.
For `COC(=O)CCC(=O)SCCNC(=O)CCNC(=O)[C@@H]1OC(C)(C)OCC1(C)C` [Compound 852, methyl 4-oxo-4-[[2-(3-[[(4R)-2,2,5,5-tetramethyl-1,3-dioxan-4-yl]formamido]propanamido)ethyl]sulfanyl]butanoate], where the note is “50 uM”, the activation at 50 µM is no less than 20%. For the same compound, where the note is “concentration tested 50 uM”, the “% increase in Glucose Uptake” value is listed as no less than 20%.
Take `CC(=O)NCCCC(=O)SCCNC(=O)CCNC(=O)[C@@H]1OC(C)(C)OCC1(C)C` [Compound 853]: the “% increase in Glucose Uptake” value (10 uM (Example 973)) is no less than 30%. Besides, for the setting “10 uM”, the activation at 10 µM is no less than 30%.
Consider `CCCCCCC(=O)SCCNC(=O)CCNC(=O)[C@@H]1OC(C)(C)OCC1(C)C` [Compound 855, N-[2-(heptanoylsulfanyl)ethyl]-3-[[(4R)-2,2,5,5-tetramethyl-1,3-dioxan-4-yl]formamido]propanamide], for which the activation at 50 µM (50 uM) is no less than 30%. Besides, the “% increase in Glucose Uptake” value (concentration tested 50 uM) is no less than 30%.
For the compound `COC(=O)C(=O)SCCNC(=O)CCNC(=O)[C@@H]1OC(C)(C)OCC1(C)C` [Compound 856], the “% increase in Glucose Uptake” value (10 uM (Example 973)) was no less than 30%. Where the note is “10 uM”, the activation at 10 µM was no less than 30%.
For `COC(=O)/C=C/C(=O)SCCNC(=O)CCNC(=O)[C@@H]1OC(C)(C)OCC1(C)C` [Compound 858, methyl (2E)-4-oxo-4-[[2-(3-[[(4R)-2,2,5,5-tetramethyl-1,3-dioxan-4-yl]formamido]propanamido)ethyl]sulfanyl]but-2-enoate], in that order: no less than 30% and no less than 30%.
Turning to `CC(=O)CC(=O)SCCNC(=O)CCNC(=O)[C@@H]1OC(C)(C)OCC1(C)C` [Compound 860, N-[2-[(3-oxobutanoyl)sulfanyl]ethyl]-3-[[(4R)-2,2,5,5-tetramethyl-1,3-dioxan-4-yl]formamido]propanamide], the activation at 50 µM (50 uM) is no less than 10%. Also, the “% increase in Glucose Uptake” value (concentration tested 50 uM) is given as no less than 10%.
As to `CCC(=O)SCCNC(=O)CCNC(=O)[C@@H]1OC(C)(C)OCC1(C)C` [Compound 861, N-[2-(propanoylsulfanyl)ethyl]-3-[[(4R)-2,2,5,5-tetramethyl-1,3-dioxan-4-yl]formamido]propanamide], where the note is “50 uM”, the activation at 50 µM was no less than 20%. In addition, where the note is “concentration tested 50 uM”, the “% increase in Glucose Uptake” value is recorded as no less than 20%.
Consider `CC1(C)COP(=O)(OCc2ccccc2)O[C@H]1C(=O)NCCC(=O)NCCS` (stereo partly drawn) [Compound 862], for which the activation at 10 µM (10 uM) is no less than 20%. The activation at 50 µM (50 uM) is no less than 10%. The “% increase in Glucose Uptake” value is on record as no less than 20% (concentration tested 10 uM) and no less than 10% (concentration tested 50 uM).
Regarding `COC(=O)CCC(=O)SCCNC(=O)CCNC(=O)[C@@H]1OP(=O)(OCc2ccccc2)OCC1(C)C` (stereo partly drawn) [Compound 863], the activation at 50 µM (50 uM) was no less than 10%. Besides, the “% increase in Glucose Uptake” value (concentration tested 50 uM) is recorded as no less than 10%.
For `C[C@@H](O)CC(=O)SCCNC(=O)CCNC(=O)[C@@H]1OP(=O)(OCc2ccccc2)OCC1(C)C` (stereo partly drawn) [Compound 864], in that order: no less than 20% and no less than 20%.
Turning to `CCOP1(=O)OCC(C)(C)[C@H](C(=O)NCCC(=O)NCCS)O1` (stereo partly drawn) [Compound 865], where the note is “10 uM”, the activation at 10 µM was no less than 20%. Also, the “% increase in Glucose Uptake” value (concentration tested 10 uM) is listed as no less than 20%.
Regarding `COC(=O)CC1(C)OCC(C)(C)[C@H](C(=O)NCCC(=O)NCCS)O1` (stereo partly drawn) [Compound 866], the “% increase in Glucose Uptake” value (10 uM (Example 973)) is on record as no less than 30%. Further, the activation at 10 µM (10 uM) is no less than 30%.
